Laboratory results reported in US12172990B2 (Constellation Pharmaceuticals, Inc., priority 2018, dated 2024).

What was measured:
full length human TREX1 = full length human TREX1 (Homo sapiens (Human), UniProt Q9NSU2); assay: TREX1 Biochemical Assay (fluorescence assay measuring degradation of dsDNA substrate); conditions: 150 pM TREX1, 60 nM dsDNA substrate, 25 minutes at room temperature
Procedure, shortened: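 His-Tev-tagged full-length human TREX1 expressed in E. coli, 150 pM final, with 60 nM TEX615/quencher-labelled 9-mer dsDNA in Tris pH 7.4, NaCl, DTT, BSA, Tween-20, MgCl2 and 1.0% DMSO; 25 min at room temperature, EDTA-quenched. Fluorescence 615 nm (excitation 570 nm); 10-point IC50 by four-parameter fit against pre-quenched and no-inhibitor controls.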

[1] = target: human TREX2 (residues M44-A279) (Homo sapiens (Human), UniProt Q9BQ50); assay: TREX2 Biochemical Assay (fluorescence assay measuring degradation of dsDNA substrate); conditions: 2.5 nM TREX2, 60 nM dsDNA substrate, 25 minutes at room temperature
Chain of human TREX2 (residues M44-A279) (Q9BQ50 whole entry, the tested form may be a part): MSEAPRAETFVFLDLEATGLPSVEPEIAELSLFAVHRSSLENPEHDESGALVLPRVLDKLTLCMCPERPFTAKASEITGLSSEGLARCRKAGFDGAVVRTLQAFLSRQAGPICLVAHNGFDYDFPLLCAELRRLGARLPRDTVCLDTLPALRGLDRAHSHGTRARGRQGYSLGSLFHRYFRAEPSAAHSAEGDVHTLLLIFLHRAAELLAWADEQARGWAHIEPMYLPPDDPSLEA
Procedure, shortened: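 Final conditions: 2.5 nM His-Tev-tagged TREX2 (E. coli-expressed), 60 nM fluorophore/quencher-labelled dsDNA, 50 mM Tris pH 7.4, 150 mM NaCl, 100 mM MgCl2, 1% DMSO; 10-point compound dose-response. Incubated 25 min at room temperature, then EDTA-quenched; fluorescence read at ex 570/em 615 nm. IC50 from four-parameter fit against pre-quenched and no-inhibitor controls.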

Chain of full length human TREX1 (Q9NSU2 whole entry): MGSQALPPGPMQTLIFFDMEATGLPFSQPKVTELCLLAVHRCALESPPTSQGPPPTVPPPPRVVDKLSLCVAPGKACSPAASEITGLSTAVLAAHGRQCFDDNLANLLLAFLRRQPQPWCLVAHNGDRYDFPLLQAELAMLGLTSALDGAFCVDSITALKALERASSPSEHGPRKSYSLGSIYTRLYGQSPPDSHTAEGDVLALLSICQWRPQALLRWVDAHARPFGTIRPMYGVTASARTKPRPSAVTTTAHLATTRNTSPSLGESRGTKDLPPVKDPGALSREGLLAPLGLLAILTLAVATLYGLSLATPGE

SMILES | IC50 (full length human TREX1) [nM] | IC50 [1] [nM]
Cn1c(C2CCCN(C(=O)c3cccnc3)C2)nc(C(=O)Nc2cnoc2)c(O)c1=O (centres unmarked) [Example 62, 5-hydroxy-N-(isoxazol-4-yl)-1-methyl-2-(1-nicotinoylpiperidin-3-yl)-6-oxo-1,6-dihydropyrimidine-4-carboxamide] | 100 to 1000 | 1000 to 10000
Cn1c(C2CCCN(C(=O)c3ccncc3)C2)nc(C(=O)Nc2cnoc2)c(O)c1=O (centres unmarked) [Example 63, 5-hydroxy-2-(1-isonicotinoylpiperidin-3-yl)-N-(isoxazol-4-yl)-1-methyl-6-oxo-1,6-dihydropyrimidine-4-carboxamide] | 100 to 1000 | 1000 to 10000
CC(=O)N1CCCC(c2nc(C(=O)Nc3cnoc3)c(O)c(=O)n2C)C1 (centres unmarked) [Example 64, 2-(1-acetylpiperidin-3-yl)-5-hydroxy-N-(isoxazol-4-yl)-1-methyl-6-oxo-1,6-dihydropyrimidine-4-carboxamide] | 100 to 1000 | 10000 to 100000
Cn1c(C2CCCN(C(=O)Nc3ccccc3)C2)nc(C(=O)Nc2cnoc2)c(O)c1=O (centres unmarked) [Example 65, 5-hydroxy-N-(isoxazol-4-yl)-1-methyl-6-oxo-2-(1-(phenylcarbamoyl)piperidin-3-yl)-1,6-dihydropyrimidine-4-carboxamide] | 100 to 1000 | 1000 to 10000
Cn1c(-c2ccccc2-c2cccnc2)nc(C(=O)Nc2cnoc2)c(O)c1=O [Example 66, 5-hydroxy-N-(isoxazol-4-yl)-1-methyl-6-oxo-2-(2-(pyridin-3-yl)phenyl)-1,6-dihydropyrimidine-4-carboxamide] | 100 to 1000 | 10000 to 100000
Cn1c(-c2ccccc2-c2ccncc2)nc(C(=O)Nc2cnoc2)c(O)c1=O [Example 67, 5-hydroxy-N-(isoxazol-4-yl)-1-methyl-6-oxo-2-(2-(pyridin-4-yl)phenyl)-1,6-dihydropyrimidine-4-carboxamide] | 1000 to 10000 | 10000 to 100000
Cn1c(-c2cc(Br)ccc2OCCO)nc(C(=O)Nc2cnoc2)c(O)c1=O [Example 70, 2-(5-bromo-2-(2-hydroxyethoxy)phenyl)-5-hydroxy-N-(isoxazol-4-yl)-1-methyl-6-oxo-1,6-dihydropyrimidine-4-carboxamide] | < 100 | 1000 to 10000
Cn1nc(CCO)c(-c2nc(C(=O)Nc3cnoc3)c(O)c(=O)n2C)n1 [Example 73, 5-hydroxy-2-(5-(2-hydroxyethyl)-2-methyl-2H-1,2,3-triazol-4-yl)-N-(isoxazol-4-yl)-1-methyl-6-oxo-1,6-dihydropyrimidine-4-carboxamide] | 100 to 1000 | 10000 to 100000
Cn1nnc(-c2nc(C(=O)Nc3cnoc3)c(O)c(=O)n2C)c1CCO [Example 74, 5-hydroxy-2-(5-(2-hydroxyethyl)-1-methyl-1H-1,2,3-triazol-4-yl)-N-(isoxazol-4-yl)-1-methyl-6-oxo-1,6-dihydropyrimidine-4-carboxamide] | 1000 to 10000 | 10000 to 100000
Cn1c(-c2ccccc2NCCCO)nc(C(=O)Nc2cnoc2)c(O)c1=O [Example 75, 5-hydroxy-2-(2-((3-hydroxypropyl)amino)phenyl)-N-(isoxazol-4-yl)-1-methyl-6-oxo-1,6-dihydropyrimidine-4-carboxamide] | > 10000 | > 100000
Cn1c(-c2ccccc2N[C@H]2C[C@@H](O)C2)nc(C(=O)Nc2cnoc2)c(O)c1=O [Example 76, 5-hydroxy-2-(2-(((1s,3s)-3-hydroxycyclobutyl)amino)phenyl)-N-(isoxazol-4-yl)-1-methyl-6-oxo-1,6-dihydropyrimidine-4-carboxamide] | 100 to 1000 | 10000 to 100000
Cn1c(-c2cccc(Br)c2CCO)nc(C(=O)Nc2cnoc2)c(O)c1=O [Example 78, 2-(3-bromo-2-(2-hydroxyethyl)phenyl)-5-hydroxy-N-(isoxazol-4-yl)-1-methyl-6-oxo-1,6-dihydropyrimidine-4-carboxamide] | < 100 | 1000 to 10000
C[C@H](Cc1ccccc1)c1nc(C(=O)Nc2cnoc2)c(O)c(=O)n1C [Example 79, (R)-5-hydroxy-N-(isoxazol-4-yl)-1-methyl-6-oxo-2-(1-phenylpropan-2-yl)-1,6-dihydropyrimidine-4-carboxamide] | < 100 | 1000 to 10000
C[C@@H](Cc1ccccc1)c1nc(C(=O)Nc2cnoc2)c(O)c(=O)n1C [Example 80, (S)-5-hydroxy-N-(isoxazol-4-yl)-1-methyl-6-oxo-2-(1-phenylpropan-2-yl)-1,6-dihydropyrimidine-4-carboxamide] | < 100 | 1000 to 10000
Cn1c([C@H]2CCC[C@@H](NC(=O)c3ccc(Cl)c(Cl)c3)C2)nc(C(=O)Nc2cnoc2)c(O)c1=O [Example 82, 2-((1S,3R)-3-(3,4-dichlorobenzamido)cyclohexyl)-5-hydroxy-N-(isoxazol-4-yl)-1-methyl-6-oxo-1,6-dihydropyrimidine-4-carboxamide] | 1000 to 10000 | 10000 to 100000
C[C@@H]1CC[C@H](c2nc(C(=O)Nc3cnoc3)c(O)c(=O)n2C)CN1C(=O)c1ccc(Cl)c(Cl)c1 [Example 83, 2-((3S,6R)-1-(3,4-dichlorobenzoyl)-6-methylpiperidin-3-yl)-5-hydroxy-N-(isoxazol-4-yl)-1-methyl-6-oxo-1,6-dihydropyrimidine-4-carboxamide] | 1000 to 10000 | 10000 to 100000
C[C@H]1CC[C@H](c2nc(C(=O)Nc3cnoc3)c(O)c(=O)n2C)CN1C(=O)c1ccc(Cl)c(Cl)c1 [Example 84, 2-((3S,6S)-1-(3,4-dichlorobenzoyl)-6-methylpiperidin-3-yl)-5-hydroxy-N-(isoxazol-4-yl)-1-methyl-6-oxo-1,6-dihydropyrimidine-4-carboxamide] | < 100 | 1000 to 10000
Cn1c([C@H]2CCN(C(=O)c3ccc(Cl)cc3)C2)nc(C(=O)Nc2cnoc2)c(O)c1=O [Example 85, (S)-2-(1-(4-chlorobenzoyl)pyrrolidin-3-yl)-5-hydroxy-N-(isoxazol-4-yl)-1-methyl-6-oxo-1,6-dihydropyrimidine-4-carboxamide] | 100 to 1000 | 10000 to 100000
Cn1c([C@@H]2CCN(C(=O)c3ccc(Cl)cc3)C2)nc(C(=O)Nc2cnoc2)c(O)c1=O [Example 86, (R)-2-(1-(4-chlorobenzoyl)pyrrolidin-3-yl)-5-hydroxy-N-(isoxazol-4-yl)-1-methyl-6-oxo-1,6-dihydropyrimidine-4-carboxamide] | 100 to 1000 | 10000 to 100000
Cn1c(C2CCCN(S(C)(=O)=O)C2)nc(C(=O)Nc2cnoc2)c(O)c1=O (centres unmarked) [Example 87, 5-hydroxy-N-(isoxazol-4-yl)-1-methyl-2-(1-(methylsulfonyl)piperidin-3-yl)-6-oxo-1,6-dihydropyrimidine-4-carboxamide] | 1000 to 10000 | 10000 to 100000

The remaining lines, values ahead:

IC50 (full length human TREX1) [nM] | IC50 [1] [nM] | SMILES
< 100 | 1000 to 10000 | Cn1c([C@H]2CCCN(C(=O)c3ccc(F)c(Cl)c3)C2)nc(C(=O)Nc2cnoc2)c(O)c1=O [Example 88, (S)-2-(1-(3-chloro-4-fluorobenzoyl)piperidin-3-yl)-5-hydroxy-N-(isoxazol-4-yl)-1-methyl-6-oxo-1,6-dihydropyrimidine-4-carboxamide]
100 to 1000 | 10000 to 100000 | Cn1c([C@H]2CCCN(C(=O)Cc3ccc(F)c(F)c3)C2)nc(C(=O)Nc2cnoc2)c(O)c1=O [Example 91, (S)-2-(1-(2-(3,4-difluorophenyl)acetyl)piperidin-3-yl)-5-hydroxy-N-(isoxazol-4-yl)-1-methyl-6-oxo-1,6-dihydropyrimidine-4-carboxamide]
100 to 1000 | 10000 to 100000 | Cn1c([C@H]2CCCN(S(=O)(=O)c3ccc(Cl)c(Cl)c3)C2)nc(C(=O)Nc2cnoc2)c(O)c1=O [Example 92, (S)-2-(1-((3,4-dichlorophenyl)sulfonyl)piperidin-3-yl)-5-hydroxy-N-(isoxazol-4-yl)-1-methyl-6-oxo-1,6-dihydropyrimidine-4-carboxamide]
100 to 1000 | 1000 to 10000 | Cn1c(C2CCCN(C(=O)c3cccnc3)C2)nc(C(=O)Nc2cnoc2)c(O)c1=O (centres unmarked) [Example 93, 5-hydroxy-N-(isoxazol-4-yl)-1-methyl-2-(1-nicotinoylpiperidin-3-yl)-6-oxo-1,6-dihydropyrimidine-4-carboxamide]
100 to 1000 | 10000 to 100000 | Cn1c(C2CCCN(C(=O)c3cn[nH]c3)C2)nc(C(=O)Nc2cnoc2)c(O)c1=O (centres unmarked) [Example 94, 2-(1-(1H-pyrazole-4-carbonyl)piperidin-3-yl)-5-hydroxy-N-(isoxazol-4-yl)-1-methyl-6-oxo-1,6-dihydropyrimidine-4-carboxamide]
100 to 1000 | 10000 to 100000 | CC(C)CNC(=O)N1CCCC(c2nc(C(=O)Nc3cnoc3)c(O)c(=O)n2C)C1 (centres unmarked) [Example 95]
100 to 1000 | 10000 to 100000 | CC(C)C(=O)N1CCCC(c2nc(C(=O)Nc3cnoc3)c(O)c(=O)n2C)C1 (centres unmarked) [Example 96, 5-hydroxy-2-(1-isobutyrylpiperidin-3-yl)-N-(isoxazol-4-yl)-1-methyl-6-oxo-1,6-dihydropyrimidine-4-carboxamide]
< 100 | < 1000 | Cn1c([C@H]2CCCN(C(=O)c3ccc(Cl)c(Cl)c3)C2)nc(C(=O)Nc2cnoc2)c(O)c1=O [Example 97, (S)-2-(1-(3,4-dichlorobenzoyl)piperidin-3-yl)-5-hydroxy-N-(isoxazol-4-yl)-1-methyl-6-oxo-1,6-dihydropyrimidine-4-carboxamide]
